# Source: patent US20210038587A1, “METHODS AND COMPOSITIONS FOR TREATING NON-ERK MAPK PATHWAY INHIBITOR-RESISTANT CANCERS” (BIOMED VALLEY DISCOVERIES, INC., priority 2013, published 2021)
# Key:
# AN3Ca = assay: Reverse Phase Protein Analysis (RPPA); format: cell-based; conditions: % change from DMSO (matched cell line)
# Experimental: (§1) Control wells were treated with DMSO at 0.1% (v/v) for 6 hours prior to cell lysate generation. Samples were then analyzed using reverse-phase protein microarray technology (Theranostics Health).
# (§2) Cell lines with common alterations in BRAF and RAS were assayed: BRAF^V600E mutant lines A375, Colo205, and HT29; KRAS^G12C-mutant cell line MIAPACa-2; KRAS^G13D-mutant cell line HCT116; and AN3Ca with atypical HRAS^F82L mutation. Changes in protein levels are shown as a percentage change from dimethyl sulfoxide (DMSO)-treated parental control (FIG. 32A and Table 23).
# HT29 = assay: Reverse Phase Protein Analysis (RPPA); format: cell-based; conditions: % change from DMSO (matched cell line)
# Experimental: as §1, §2
smiles,measurement,setting,value
Cc1cnc(Nc2ccc(F)cc2Cl)nc1-c1c[nH]c(C(=O)N[C@H](CO)c2cccc(Cl)c2)c1 [Vx-11e],Avg (4ebp1 T70),AN3Ca,16.67%
same,Avg (Akt S473),AN3Ca,56.17%
same,Avg (Akt),AN3Ca,−24.62%
same,Avg (Bad S136),AN3Ca,−3.81%
same,Avg (Bad S155),AN3Ca,4.59%
same,Avg (Bak),AN3Ca,−1.6%
same,Avg (Bax),AN3Ca,−7.89%
same,Avg (Bcl 2),AN3Ca,−18.77%
same,Avg (Bcl2 S70),AN3Ca,−14.39%
same,Avg (Bcl 2 T56),AN3Ca,−11.73%
same,Avg (Bim),AN3Ca,−1.46%
same,Avg (CREB S133),AN3Ca,0.16%
same,Avg (Caspase 3 CL D175),AN3Ca,−12.7%
same,Avg (Caspase 7 Cl D198),AN3Ca,−8.09%
same,Avg (Chk1),AN3Ca,−0.46%
same,Avg (Chk1 S345),AN3Ca,−9.54%
same,Avg (Cyclin D1),AN3Ca,−9.59%
same,Avg (ERK 1 2),AN3Ca,−11.27%
same,Avg (ERK 1 2 T202 Y204),AN3Ca,718.94%
same,Avg (MAK1 S360),AN3Ca,6.83%
same,Avg (Mcl1),AN3Ca,−4.24%
same,Avg (Raptor S792),AN3Ca,0.37%
same,Avg (Raptor),AN3Ca,−2.47%
same,Avg (Rictor),AN3Ca,0.02%
same,Avg (Stat1),AN3Ca,−0.83%
same,Avg (Stat3),AN3Ca,−7.67%
same,Avg (bad S112),AN3Ca,−45.63%
same,Avg (c Fos),AN3Ca,−5.52%
same,Avg (c Myc),AN3Ca,−5.47%
same,Avg (mTOR S2448),AN3Ca,−2.37%
same,Avg (mTOR S2481),AN3Ca,7.22%
same,Avg (mTOR),AN3Ca,−6.27%
same,Avg (p70 S6 Kinase),AN3Ca,−2.33%
same,Avg (p90 RSK S380),AN3Ca,−28.41%
same,Avg(S6 Ribo Prot S235 236),AN3Ca,−18.54%
same,Avg(S6 Ribo Prot S240 244),AN3Ca,−12.55%
same,Avg(Tuberin TSC2 Y1571),AN3Ca,3.8%
same,Avg(p70 S6 Kinase S371 S394),AN3Ca,44.04%
same,Avg(p70 S6 Kinase T389 T412),AN3Ca,0.56%
same,Avg (4ebp1 T70),HT29,−2.89%
same,Avg (Akt S473),HT29,−20.5%
same,Avg (Akt),HT29,−17.84%
same,Avg (Bad S136),HT29,5.53%
same,Avg (Bad S155),HT29,−11.26%
same,Avg (Bak),HT29,2.69%
same,Avg (Bax),HT29,−18.47%
same,Avg (Bcl 2),HT29,−16.73%
same,Avg (Bcl2 S70),HT29,−12.55%
same,Avg (Bcl 2 T56),HT29,−25.01%
same,Avg (Bim),HT29,3.12%
same,Avg (CREB S133),HT29,14.16%
same,Avg (Caspase 3 CL D175),HT29,−2.86%
same,Avg (Caspase 7 Cl D198),HT29,8.28%
same,Avg (Chk1),HT29,4.68%
same,Avg (Chk1 S345),HT29,6.44%
same,Avg (Cyclin D1),HT29,−35.2%
same,Avg (ERK 1 2),HT29,0.24%
same,Avg (ERK 1 2 T202 Y204),HT29,435.68%
same,Avg (MAK1 S360),HT29,5.64%
same,Avg (Mcl1),HT29,1.36%
same,Avg (Raptor S792),HT29,−2.13%
same,Avg (Raptor),HT29,−6.53%
same,Avg (Rictor),HT29,−2.6%
same,Avg (Stat1),HT29,4.29%
same,Avg (Stat3),HT29,−4.28%
same,Avg (bad S112),HT29,−35.62%
same,Avg (c Fos),HT29,−8.23%
same,Avg (c Myc),HT29,10.71%
same,Avg (mTOR S2448),HT29,−13.94%
same,Avg (mTOR S2481),HT29,0.52%
same,Avg (mTOR),HT29,16.94%
same,Avg (p70 S6 Kinase),HT29,−1.72%
same,Avg (p90 RSK S380),HT29,−43.41%
same,Avg(S6 Ribo Prot S235 236),HT29,−32.8%
same,Avg(S6 Ribo Prot S240 244),HT29,−24.35%
same,Avg(Tuberin TSC2 Y1571),HT29,2.85%
same,Avg(p70 S6 Kinase S371 S394),HT29,−22.86%
same,Avg(p70 S6 Kinase T389 T412),HT29,−12.31%
Cn1nccc1Nc1nccc(-c2ccn([C@H](CO)c3ccc(Cl)c(F)c3)c(=O)c2)n1 [GDC-0994],Avg (4ebp1 T70),AN3Ca,11.28%
same,Avg (Akt S473),AN3Ca,82.37%
same,Avg (Akt),AN3Ca,−26.04%
same,Avg (Bad S136),AN3Ca,0.71%
same,Avg (Bad S155),AN3Ca,17.31%
same,Avg (Bak),AN3Ca,7.33%
same,Avg (Bax),AN3Ca,23.83%
same,Avg (Bcl 2),AN3Ca,7.8%
same,Avg (Bcl2 S70),AN3Ca,−0.65%
same,Avg (Bcl 2 T56),AN3Ca,1.23%
same,Avg (Bim),AN3Ca,−11.63%
same,Avg (CREB S133),AN3Ca,5.03%
same,Avg (Caspase 3 CL D175),AN3Ca,1.55%
same,Avg (Caspase 7 Cl D198),AN3Ca,−15.56%
same,Avg (Chk1),AN3Ca,9.43%
same,Avg (Chk1 S345),AN3Ca,15.46%
same,Avg (Cyclin D1),AN3Ca,0.34%
same,Avg (ERK 1 2),AN3Ca,−2.87%
same,Avg (ERK 1 2 T202 Y204),AN3Ca,645.51%
same,Avg (MAK1 S360),AN3Ca,6.84%
same,Avg (Mcl1),AN3Ca,−4.16%
same,Avg (Raptor S792),AN3Ca,4.85%
same,Avg (Raptor),AN3Ca,−8.05%
same,Avg (Rictor),AN3Ca,−9.21%
same,Avg (Stat1),AN3Ca,9.15%
same,Avg (Stat3),AN3Ca,−13.05%
same,Avg (bad S112),AN3Ca,2.53%
same,Avg (c Fos),AN3Ca,−0.63%
same,Avg (c Myc),AN3Ca,3.99%
same,Avg (mTOR S2448),AN3Ca,−2.96%
same,Avg (mTOR S2481),AN3Ca,25.42%
same,Avg (mTOR),AN3Ca,−2.85%
same,Avg (p70 S6 Kinase),AN3Ca,−3.67%
same,Avg (p90 RSK S380),AN3Ca,−29.44%
same,Avg(S6 Ribo Prot S235 236),AN3Ca,−30.74%
same,Avg(S6 Ribo Prot S240 244),AN3Ca,−23.47%
same,Avg(Tuberin TSC2 Y1571),AN3Ca,25.18%
same,Avg(p70 S6 Kinase S371 S394),AN3Ca,29.09%
same,Avg(p70 S6 Kinase T389 T412),AN3Ca,26.01%
same,Avg (4ebp1 T70),HT29,1.95%
same,Avg (Akt S473),HT29,−10.5%
same,Avg (Akt),HT29,−10.01%
same,Avg (Bad S136),HT29,2%
same,Avg (Bad S155),HT29,−6.7%
same,Avg (Bak),HT29,3.56%
same,Avg (Bax),HT29,1.1%
same,Avg (Bcl 2),HT29,18.16%
same,Avg (Bcl2 S70),HT29,10.59%
same,Avg (Bcl 2 T56),HT29,1.61%
same,Avg (Bim),HT29,7.74%
same,Avg (CREB S133),HT29,9.54%
same,Avg (Caspase 3 CL D175),HT29,−3.44%
same,Avg (Caspase 7 Cl D198),HT29,−0.88%
same,Avg (Chk1),HT29,5.68%
same,Avg (Chk1 S345),HT29,6.88%
same,Avg (Cyclin D1),HT29,−35.69%
same,Avg (ERK 1 2),HT29,4.66%
same,Avg (ERK 1 2 T202 Y204),HT29,268.99%
same,Avg (MAK1 S360),HT29,−0.04%
same,Avg (Mcl1),HT29,3.71%
same,Avg (Raptor S792),HT29,−1.75%
same,Avg (Raptor),HT29,−6.85%
same,Avg (Rictor),HT29,−10.62%
same,Avg (Stat1),HT29,2.58%
same,Avg (Stat3),HT29,−3.69%
same,Avg (bad S112),HT29,−12.98%
same,Avg (c Fos),HT29,−12.92%
same,Avg (c Myc),HT29,7.56%
same,Avg (mTOR S2448),HT29,−11.44%
same,Avg (mTOR S2481),HT29,3.23%
same,Avg (mTOR),HT29,10.45%
same,Avg (p70 S6 Kinase),HT29,−2.83%
same,Avg (p90 RSK S380),HT29,−30.59%
same,Avg(S6 Ribo Prot S235 236),HT29,−41.45%
same,Avg(S6 Ribo Prot S240 244),HT29,−21.74%
same,Avg(Tuberin TSC2 Y1571),HT29,11.86%
same,Avg(p70 S6 Kinase S371 S394),HT29,−25.73%
same,Avg(p70 S6 Kinase T389 T412),HT29,−20.86%
